Data as given in PMC9415646, “Improving Aqueous Solubility and In Vitro Pharmacokinetic Properties of the 3-Nitroimidazo[1,2-a]pyridine Antileishmanial Pharmacophore” (Pharmaceuticals, 2022).
Read-outs that look alike come from different tables or passages of the source.

Tests used:
[1] = tested on: L. infantum promastigotes; test: Antileishmanial activity against L. infantum promastigotes (luciferase assay); format: cell-based; conditions: Leishmania infantum, 72 h, read-out: EC50 L. infantum Pro.
Experimental: L. infantum promastigotes (MHOM/MA/67/ITMAP-263, CNR Leishmania, Montpellier, France, expressing luciferase activity) were used in the following tests. The effects of the tested compounds on the growth of L. infantum promastigotes were assessed by Luciferase Assay. Briefly, promastigotes in log-phase in RPMI 1640 medium supplemented with 10% fetal calf serum (FCS), 2 mM L-glutamine and antibiotics (100U/mL penicillin, 100 µg/mL streptomycin and 50µg/mL geneticin), were incubated at an average density of 10^6 parasites/mL (100 µL/well) in sterile 96-well plates with various concentrations of compounds dissolved in DMSO (final concentration less than 0.5% v/v), in duplicate. Appropriate controls (100 µL/well) treated by DMSO and reference drugs (purchased for the majority from Sigma Aldrich) were added to each set of experiments. After a 72 h incubation period at 24 °C, each plate-well was then microscope-examined for detecting possible precipitate formation. To estimate the luciferase activities of promastigotes, 80 µL of each well are transferred in white 96-well plates, Steady Glow reagent (Promega) was added according to manufacter’s instructions, and plates were incubated for 2 min. The luminescence was measured in a FLUOstar Omega (BMG Labtech, Champigny-sur-Marne, France). […] EC50 were calculated by non-linear regression analysis processed on dose–response curves, using TableCurve 2D V5 software.

[2] = Cytotoxicity on THP-1 cell line (MTT); format: cell-based; conditions: human, THP-1 cells, THP1 cell line
Experimental: The plates were incubated for 72 h at 37 °C. Each well plate was then microscope-examined for detecting possible precipitate formation before the medium was aspirated from the wells. 100 µL of MTT solution (0.5 mg/mL in medium) were then added to each well. Cells were incubated for 2 h at 37 °C. […] Plates were shaken vigorously (300 rpm) for 10 min. The absorbance was measured at 570 nm using a BIO-TEK ELx808 Absorbance Microplate Reader. DMSO was used as blank and doxorubicin (purchased from Sigma Aldrich) as positive control. Cell viability was calculated as percentage of control (cells incubated with DMSO). […] (Palo Alto, CA, USA). CC50 values represent the mean value calculated from three separate experiments.

[3] = tested on: L. infantum intracellular amastigotes; test: Antileishmanial activity on L. infantum intracellular (intra-THP1 macrophage) amastigotes; format: cell-based; conditions: Leishmania infantum, THP-1; intramacrophage (THP1) amastigotes, 120 h; read-out: EC50 L. infantum Intra. Ama.
Experimental: The undifferentiated THP1 human monocyte cells (acute monocytic leukemia cell line purchased from ATCC, ref TIB-202) were grown in RPMI 1640 medium (Life Technologies, Saint-Aubin, France) supplemented with 10% FCS (Life Technologies, Saint-Aubin, France), 100 U/mL penicillin, 100 µg/mL streptomycin and 2 mM L-glutamine at 37 °C, 5% CO2. The culture was maintained between 3.10^5 and 1.10^6 cells/mL. The in vitro evaluation of the antileishmanial activity on intracellular amastigote forms of the tested compound was assessed as below.
Briefly, 200 μL of THP-1 cells with Phorbol 12-Myristate 13-Acetate (final concentration 50 ng/mL) were seeded in 96-well plates at an average density of 0.77 × 10^5 cells/mL and incubated for 96 h at 37 °C, 5% CO2. Promastigotes were centrifuged at 3000 rpm for 10 min and the supernatant replaced by the same volume of complete RPMI pH 5.4 and incubated for 24 h at 27 °C. Differentiated THP-1 cells were then infected by acidified promastigotes with an infection ratio of twenty parasites for one macrophage and incubated for 24 h at 37 °C, 5% CO2.
(§1) • Luciferase activity and determination of EC50 were performed as above.

[4] = tested on: L. infantum axenic amastigotes; test: Antileishmanial activity on L. infantum axenic amastigotes (luciferase assay); format: cell-based; conditions: Leishmania infantum, 48 h, read-out: EC50 L. infantum Axenic Ama.
Experimental: L. infantum promastigotes were harvested in logarithmic phase of growth by centrifugation at 900× g for 10 min. The supernatant was removed carefully and was replaced by the same volume of RPMI 1640 complete medium at pH 5.4 and incubated for 24 h at 24 °C. The acidified promastigotes were then incubated for 24 h at 37 °C in a ventilated flask to transform them into axenic amastigotes. The amastigote stage was checked both by electron microscopy (short flagellum with small bulbous tip extending beyond a spherical cell body) and RT-PCR to confirm the overexpression of ATG8 and amastin genes in amastigotes, relative to promastigotes. The effects of the tested compounds on the growth of L. infantum axenic amastigotes were assessed as follows. L. infantum amastigotes were incubated at a density of 2 × 10^6 parasites/mL in sterile 96-well plates with various concentrations of compounds dissolved in DMSO (final concentration less than 0.5% v/v), in duplicate. Appropriate controls treated with DMSO, amphotericin B, miltefosine, fexinidazole and fexinidazole sulfone were added to each set of experiments. After a 48 h incubation period at 37 °C, each plate-well was then microscopically examined to detect any precipitate formation.
as §1

[5] = tested on: L. donovani promastigotes; test: Antileishmanial activity against L. donovani promastigotes (MTT assay); format: cell-based; conditions: Leishmania donovani, 72 h, read-out: EC50 L. donovani Pro.
Experimental: The Leishmania species used in this study were L. donovani (MHOM/IN/00/DEVI) purchased from CNR Leishmania (Montpellier, France). Leishmania promastigote forms were grown in Schneider’s Drosophila medium (Life Technologies, Saint-Aubin, France) supplemented with 100 U/mL penicillin, 100 µg/mL streptomycin, 2 mM L-glutamine and 20% FCS (Life Technologies, Saint-Aubin, France) at 27 °C. The in vitro evaluation of the tested compound’s antileishmanial activity on promastigote forms was carried out by MTT assay according to the Mosmann protocol with some modifications. Briefly, promastigotes in log-phase were incubated at an average density of 10^6 parasites/mL in sterile 96-well plates with various concentrations of compound dissolved in DMSO (final concentration less than 0.5% v/v), in duplicate. Appropriate controls treated with DMSO, Miltefosine, Amphotericin B, Fexinidazole, and Fexinidazole sulfone (reference drugs purchased from Sigma-Aldrich, Saint-Louis, Missouri, USA) were added to each set of experiments. After a 72 h incubation period at 27 °C, parasitic metabolic activity was determined. Each plate-well was then microscope-analyzed to detect any precipitate formation. 20 µL of MTT (3-(4,5-dimethylthiazol-2-yl)-2,5-diphenyltetrazolium bromide) (Sigma-Aldrich, Saint-Louis, Missouri, USA) solution (5 mg/mL in PBS) were added to each well and incubated for 4 h at 27 °C. The enzyme reaction was then stopped by addition of 100 µL of 50% isopropanol–10% sodium dodecyl sulfate. Plates were shaken vigorously at 300 rpm for 10 min. The absorbance was measured at 570 nm in a BIO-TEK Elx808 (Biotek, Colmar, France) absorbance microplate reader. […] EC50 values were calculated by non-linear regression analysis processed dose-response curves, using TableCurve 2D V5.0 software (Systat Software Inc. (Palo Alto, CA, USA)). EC50 values represent the mean value calculated from at least three separate experiments.

[6] = Cytotoxicity evaluation on HepG2 cell line (MTT); format: cell-based; conditions: human, HepG2 cells
Experimental: The tested molecules’ cytotoxicity was assessed according to the method of Mosmann with slight modifications. […] Triplicate assays were performed for each sample. Each plate-well was then microscope-examined to detect possible precipitate formation before the medium was aspirated from the wells. 100 µL of MTT (3-(4,5-dimethyl-2-thiazolyl)-2,5-diphenyl-2H-tetrazolium bromide) solution (0.5 mg/mL in medium without FCS) were then added to each well. […] Plates were shaken vigorously (700 rpm) for 10 min. The absorbance was measured at 570 nm with 630 nm as reference wavelength using a BIO-TEK ELx808 Absorbance Microplate Reader. DMSO was used as blank and doxorubicin (purchased from Sigma Aldrich) as positive control. Cell viability was calculated as percentage of control (cells incubated without compound). […] (Palo Alto, CA, USA)). CC50 values represent the mean value calculated from three separate experiments.

[7] = tested on: T. b. brucei BSF trypomastigotes; test: Antitrypanosomal evaluation on T. b. brucei BSF trypomastigotes (Alamar Blue); format: cell-based; conditions: Trypanosoma brucei, trypomastigote blood stream form
Experimental: The effects of the tested compounds on the growth of T. b. brucei were assessed by Alamar Blue® assay described by Räz et al. T. b. brucei AnTat 1.9 (IMTA, Antwerpen, Belgium) was cultured in MEM with Earle’s salts, supplemented according to the protocol of Baltz et al. with the following modifications: 0.5 mM mercaptoethanol (Sigma Aldrich®, France), 1.5 mM L-cysteine (Sigma Aldrich®), 0.05 mM bathocuproïne sulfate (Sigma Aldrich®) and 20% heat-inactivated horse serum (Gibco®, France), at 37 °C and 5% CO2. They were incubated at an average density of 2000 parasites/100 µL in sterile 96-wells plates (Fisher®, France) with various concentrations of compounds dissolved in DMSO, in duplicate. Appropriate controls suramin, treated with sterile water, and fexinidazole, treated with DMSO on sterile water (reference drugs purchased from Sigma Aldrich, France and Fluorochem, UK) were added to each set of experiments. After a 69 h incubation period at 37 °C, 10 µL of the viability marker Alamar Blue® (Fisher, France) were then added to each well, and the plates were incubated for 5 h. The plates were read in a ENSPIRE microplate reader (PerkinElmer, Waltham, MA, USA) using an excitation wavelength of 530 nm and an emission wavelength of 590 nm. […] EC50 were calculated by nonlinear regression analysis processed on dose-response curves, using GraphPad Prism software (USA). EC50 values were calculated from three separate experiments.

C[C@@H]1[C@H](O)[C@@H](C)/C=C/C=C/C=C/C=C/C=C/C=C/C=C/[C@H](O[C@@H]2O[C@H](C)[C@@H](O)[C@H](N)[C@@H]2O)C[C@@H]2O[C@](O)(C[C@@H](O)C[C@@H](O)[C@H](O)CC[C@@H](O)C[C@@H](O)CC(=O)O[C@H]1C)C[C@H](O)[C@H]2C(=O)O [Amphotericin B, reference compound]
EC50 [1]: 0.04 ± 0.01 µM | CC50 at 72 h [2]: 12.1 ± 1.3 µM | EC50 [3]: 0.06 ± 0.01 µM | EC50 [4]: 0.08 ± 0.02 µM | EC50 [5]: 0.07 ± 0.01 µM

O=[N+]([O-])c1c(CS(=O)(=O)c2ccc(O)cc2)nc2c(Br)cc(Cl)cn12 [Compound 2c, 4-{[(8-Bromo-6-Chloro-3-Nitroimidazo[1,2-a]pyridin-2-yl)methyl]sulfonyl}phenol]
CC50 at 72 h [6]: > 3.9 µM | melting point: 242 °C | EC50 [1]: > 100 µM | CC50 at 72 h [2]: > 100 µM | EC50 [4]: > 5 µM | EC50 [7]: 0.4 ± 0.03 µM | EC50 ([5]; promastigotes, MTT): > 3.1 µM

O=[N+]([O-])c1c(CS(=O)(=O)CCC(F)(F)F)nc2c([S+]([O-])c3ccc(Cl)cc3)cc(Cl)cn12 (stereo not drawn) [Compound 6a, 6-Chloro-8-[(4-Chlorophenyl)sulfinyl]-3-Nitro-2-[(3,3,3-Trifluoropropylsulfonyl)methyl] imidazo[1,2-a]pyridine]
CC50 at 72 h [6]: > 5 µM | melting point: 221 °C | EC50 [1]: 7.4 ± 0.4 µM | CC50 at 72 h [2]: > 100 µM | EC50 [3]: 3.3 ± 0.2 µM | EC50 [4]: 5 ± 0.1 µM | EC50 ([5]; promastigotes, MTT): 1.9 ± 0.3 µM

Cn1c([N+](=O)[O-])cnc1COc1ccc(S(C)(=O)=O)cc1 [Fexinidazole sulfone, reference compound]
EC50 [1]: 1.1 ± 0.1 µM | CC50 at 72 h [2]: > 100 µM | EC50 [3]: 17.8 ± 1.4 µM | EC50 [4]: 4.3 ± 0.1 µM | EC50 ([5]; promastigotes, MTT): 1.2 ± 0.2 µM

CCCCCCCCCCCCCCCCOP(=O)([O-])OCC[N+](C)(C)C [Miltefosine, reference compound]
EC50 [1]: 18.2 ± 0.5 µM | CC50 at 72 h [2]: 28.1 ± 3.4 µM | EC50 [3]: 0.4 ± 0.14 µM | EC50 [4]: 0.3 ± 0.02 µM

Cc1ccc(C(=O)Nc2ccc(S(=O)(=O)O)c3cc(S(=O)(=O)O)cc(S(=O)(=O)O)c23)cc1NC(=O)c1cccc(NC(=O)Nc2cccc(C(=O)Nc3cc(C(=O)Nc4ccc(S(=O)(=O)O)c5cc(S(=O)(=O)O)cc(S(=O)(=O)O)c45)ccc3C)c2)c1 [Suramin, reference compound]
CC50 at 72 h [6]: > 100 µM | EC50 [7]: 0.08 ± 0.04 µM
